Values after ≈ are worked out from the molar mass of the structure shown. Read-outs that look alike come from different tables or passages of the source.
Tests used:
[1] = system: L. monocytogenes; conditions: cited from earlier work
[2] = system: L. monocytogenes invasion into Caco-2 cells; test: L. monocytogenes invasion into Caco-2 cells (CFU assay, immunostaining); type: cell-based, Listeria monocytogenes; conditions: EGDeΔsrtA co-treated or pre-treated with phloretin; Caco-2, 1 h
Experimental: (§1) The Caco-2 cell line was maintained in RPMI-1640 medium with 10% fetal bovine serum, non-essential amino acids and antibiotics in a humidified atmosphere at 37°C with 5% CO2. The cells were routinely adjusted to a concentration of 3 × 10^5 cells per ml, seeded into 24-well plastic culture microplates (3 × 10^5 per microplate) and cultured for 48 h for immunostaining and the determination of intracellular bacterial growth. To assay LDH release, cell monolayers were incubated overnight in culture medium without antibiotics in 96-well plates (2 × 10^4 cells per well).
Caco-2 cells were co-cultured with L. monocytogenes at an MOI of 100. […] In each case, gentamicin (20 μg/ml) was added 30 min after bacterial internalization.
A 0.3% concentration of Triton X-100 was added to permeabilize the cells for 4 min prior to stain the total bacteria (intracellular + extracellular) with a rabbit L. monocytogenes-specific antibody (Abcam) and an Alexa Fluor 488-conjugated chicken anti-rabbit antibody (Molecular Probes).

[3] = target: T1, WT-SrtA (Listeria monocytogenes serovar 1/2a, UniProt Q8Y8H5); test: Fluorescence-quenching binding constant (WT-SrtA); set-up: GST (inferred from vector pGEX-6P-1) (N); made in house
T1 sequence (Q8Y8H5 71-222): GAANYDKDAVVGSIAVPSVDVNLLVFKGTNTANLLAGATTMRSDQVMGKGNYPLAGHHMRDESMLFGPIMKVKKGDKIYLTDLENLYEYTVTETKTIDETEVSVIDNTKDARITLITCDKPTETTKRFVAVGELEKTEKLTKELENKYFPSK
Experimental: (§2) The binding constant (KA) for phloretin with SrtA was measured using a fluorescence-quenching method. A 280-nm excitation wavelength with a 5-nm band-pass and a 345-nm emission wavelength with a 10-nm band-pass were used for the measurements. The details of the protocol used to perform the measurements were as previously described (Bandyopadhyay et al., [2002]; Jurasekova et al., [2009]).

[4] = Toxicity of phloretin in healthy (uninfected) mice; type: in vivo, BALB/c mice
Experimental: (§3) Overnight cultures of L. monocytogenes were enlarged by culturing into fresh TSB (1:100) at 37°C with shaking until the OD at 600 nm reached 1.0, at which point they were harvested. The cell pellets were washed and suspended in normal saline. To establish an infection model, 200 μL prepared bacterial suspension (1 × 10^8 CFU/ml) was intraperitoneally inoculated into BALB/c mice. The infected mice in the treatment group were subcutaneously administered 150 mg/kg of phloretin 2 h after infection and again at 8-h intervals. The infected mice in the […] group were injected with an equal volume of dimethyl sulfoxide (DMSO) at the same time points. Finally, a group of healthy mice received only phloretin to examine the toxicity of the drug. Each group had 10 mice, and the therapeutic trial lasted for 96 h; survival statistics were collected throughout this period.
(§4) For histopathologic analysis, the mice were euthanized with anesthesia following cervical dislocation at 48 h post-infection. Liver and spleen tissues were removed, fixed with formalin, embedded in paraffin, stained with hematoxylin and eosin and visualized by light microscopy. To analyze the bacterial burden in tissue, the liver and spleen tissues collected from the sacrificed mice were weighed, lysed in 2% Triton X-100 and inoculated onto TSB agar plates at 37°C overnight.

[5] = system: Caco-2 cells; test: Cytotoxicity of phloretin in Caco-2 cells; type: cell-based; conditions: phloretin treatment alone
[6] = target: T1, WT-SrtA; test: Sortase A enzyme activity inhibition assay (WT-SrtA)
Experimental: Following another incubation at 37°C for 1 h, the fluorescence intensity of each sample was determined at emission and excitation wavelengths of 350 and 520 nm, respectively, in a black 96-well plate.

[7] = system: hly; test: Agar assay and β-galactosidase activity analysis (phly-lacZ); type: cell-based, Listeria monocytogenes; conditions: phly-lacZ-containing bacteria; agar assay 0–116.68 μM and β-galactosidase activity
Experimental: The phly-lacZ plasmid was a kind gift from Dr. Birgitte Kallipolitis (University of Southern Denmark) and was electroporated into EGDe cells to perform an agar assay as described previously (Kastbjerg et al., [2010]). A 25-ml aliquot of TSB agar was melted at 44°C and supplemented with X-gal (150 μg/ml) and kanamycin (50 μg/ml) before being thoroughly mixed with 1 ml of an overnight culture of bacteria containing the phly-lacZ plasmid. Nine wells were made per plate following desiccation in Class II biosafety cabinet at room temperature. A 30-μl aliquot of phloretin or benzalkonium bromide at varying concentrations was added to each well. The plates were incubated for 48 h at 37°C. The β-galactosidase activities of the phly-lacZ-containing bacteria treated with various concentrations of phloretin were quantitatively determined as previously described (Larsen et al., [2006]).

[8] = target: T2, listeriolysin O (LLO) (Listeria monocytogenes serovar 1/2a, UniProt P13128); test: Hemolysis assay of L. monocytogenes culture supernatants; type: cell-based
T2 construct: endogenous in cells; host or cells: L. monocytogenes EGDe wild-type strain BUG 1600
T2 sequence (P13128 25-529): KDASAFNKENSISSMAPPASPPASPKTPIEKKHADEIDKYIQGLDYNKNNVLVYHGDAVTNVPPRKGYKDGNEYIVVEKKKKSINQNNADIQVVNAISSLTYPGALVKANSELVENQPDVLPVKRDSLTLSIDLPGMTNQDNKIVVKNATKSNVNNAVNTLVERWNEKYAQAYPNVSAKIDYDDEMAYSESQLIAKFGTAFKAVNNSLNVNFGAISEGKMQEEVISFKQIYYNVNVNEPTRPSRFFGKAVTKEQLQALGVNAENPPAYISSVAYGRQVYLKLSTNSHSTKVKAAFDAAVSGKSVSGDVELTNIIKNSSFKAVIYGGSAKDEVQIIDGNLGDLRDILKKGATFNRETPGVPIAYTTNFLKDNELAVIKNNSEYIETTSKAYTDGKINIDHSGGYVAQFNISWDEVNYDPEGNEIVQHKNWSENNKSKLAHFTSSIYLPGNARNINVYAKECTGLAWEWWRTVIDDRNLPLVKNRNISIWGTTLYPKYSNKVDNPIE
Experimental: Overnight cultures of EGDe were enlarged and cultured into fresh TSB (1:100) at 37°C for 2 h with shaking and then treated with various concentrations of phloretin until the optical density (OD) at 600 nm reached 2.0, at which point they were harvested (8000 g, 5 min). The bacterial culture supernatants were incubated with rabbit erythrocytes (final concentration of 2.5%) in PBS (35 mM Na3PO4, 125 mM NaCl, 0.5 mg/mL BSA, pH 5.5) at 37°C for 30 min, and then the hemolytic activity of each sample was determined by measuring the release of hemoglobin in supernatants at an OD of 543 nm after centrifugation (8000 g, 1 min).
To examine the direct effect of phloretin on hemolysis induced by bacterial culture supernatants, the hemolytic activities of bacterial culture supernatants pre-incubated with various concentrations of phloretin were determined as described above.

[9] = target: T3, I103A (Listeria monocytogenes serovar 1/2a, UniProt Q8Y8H5, I175A); test: Fluorescence-quenching binding constant (I103A); conditions: fluorescence-quenching spectroscopy, read-out: binding constant KA (converted)
T3 construct: GST (inferred from vector pGEX-6P-1) (N); made in house
T3 sequence (Q8Y8H5 71-222 I175A): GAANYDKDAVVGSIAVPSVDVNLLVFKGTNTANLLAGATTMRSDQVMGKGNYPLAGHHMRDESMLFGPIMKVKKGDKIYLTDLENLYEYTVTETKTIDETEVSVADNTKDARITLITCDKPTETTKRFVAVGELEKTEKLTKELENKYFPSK
Experimental: as §2

[10] = target: T4, V129A (Listeria monocytogenes serovar 1/2a, UniProt Q8Y8H5, V201A); test: Fluorescence-quenching binding constant (V129A); conditions: fluorescence-quenching spectroscopy, read-out: binding constant KA (converted)
T4 construct: GST (inferred from vector pGEX-6P-1) (N); made in house
T4 sequence (Q8Y8H5 71-222 V201A): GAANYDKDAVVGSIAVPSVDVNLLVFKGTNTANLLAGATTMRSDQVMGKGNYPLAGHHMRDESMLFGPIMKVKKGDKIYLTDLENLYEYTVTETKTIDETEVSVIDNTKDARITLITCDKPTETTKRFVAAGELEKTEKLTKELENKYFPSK
Experimental: as §2

[11] = system: L. monocytogenes-induced cytotoxicity in Caco-2 cells; test: LDH release assay of infected Caco-2 cells; type: cell-based, Listeria monocytogenes; conditions: all phloretin-treated groups vs infected untreated control; 5 h, MOI 100
Experimental: as §1
Caco-2 cells grown in 96-well microplates were infected with L. monocytogenes pre-exposed or not to phloretin at a multiplicity of infection (MOI) of 100. Following infections with discriminatory concentrations of phloretin for 5 h, the LDH released into the supernatants of the co-culture system was determined using a Cytotoxicity Detection Kit (LDH; Roche, Basel, Switzerland) as previously described (Wang et al., [2015a]).

[12] = target: T5, T90A (Listeria monocytogenes serovar 1/2a, UniProt Q8Y8H5, T162A); test: Fluorescence-quenching binding constant (T90A); conditions: fluorescence-quenching spectroscopy, read-out: binding constant KA (converted)
T5 construct: GST (inferred from vector pGEX-6P-1) (N); made in house
T5 sequence (Q8Y8H5 71-222 T162A): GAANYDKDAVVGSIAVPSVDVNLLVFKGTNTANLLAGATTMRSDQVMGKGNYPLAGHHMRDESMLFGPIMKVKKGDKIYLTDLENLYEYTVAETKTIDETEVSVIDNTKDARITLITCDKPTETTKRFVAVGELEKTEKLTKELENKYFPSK
Experimental: as §2

[13] = system: L. monocytogenes; test: Mouse model of L. monocytogenes infection; type: in vivo, BALB/c mice
Experimental: Female 6- to 8-week-old BALB/c mice were purchased from Liao Ning Chang Sheng Biotechnology Co., LTD. The mice used for the experiments were housed and handled in accordance with the guidelines established by the United States National Institutes of Health. These studies were reviewed and approved by the Institutional Animal Care and Use Committee of Jilin University.
as §3, §4

[14] = system: LLO; type: cell-based, Listeria monocytogenes
[15] = system: L. monocytogenes EGDe; test: Susceptibility assays (MIC, growth curve)

With `O=C(/C=C/c1ccccc1)c1ccccc1` [chalcone] as the compound, how does the “protection against L. monocytogenes infection in vitro and in vivo” value ([1]; inhibitor of SrtA, ref Li et al., 2016) read?
Its value is “robust protection”.

Which “invasion of EGDeΔsrtA (CFU assay)” value [2] does the source give for `O=C(CCc1ccc(O)cc1)c1c(O)cc(O)cc1O` [phloretin] here?
Its value is “no difference was observed”.

And the Kd [3]?
Its Kd is 12.6 µM.

What about the “survival of mice treated only with phloretin, not infected” value ([4]; 150 mg/kg s.c. at 8-h intervals, 96 h) of the same compound?
The value was “all survived”.

What about the “pathological changes in uninfected mice treated with phloretin” value ([4]; liver and spleen) of the same compound?
The value was “no pathological changes were observed”.

What about the “cytotoxicity in Caco-2 cells” value [5] of the same compound?
Its value is “did not significantly induce cytotoxicity”.

And the IC50 [6]?
The IC50 was 37.2 µM.

What about the transcription of hly [7] of the same compound?
The transcription of hly was “did not affect the transcription of hly”.

What about the “hemolytic activities of culture supernatants of L. monocytogenes EGDe cells after co-culture” value ([8]; co-culture with phloretin 7.3–58.34 μM, rabbit erythrocytes) of the same compound?
Its value is “dose-dependently decreased”.

What about the “hemolytic activities of bacterial culture supernatants after direct pre-incubation” value ([8]; supernatants pre-incubated with various concentrations of phloretin) of the same compound?
Its value is “did not affect the hemolytic activities”.

And the Kd [9]?
Its Kd is 17.2 µM.

What about the Kd [10] of the same compound?
Its Kd is 20.1 µM.

What about the “LDH release of EGDe-infected Caco-2 cells” value [11] of the same compound?
Its value is “decreased LDH release”.

What about the Kd [12] of the same compound?
Its Kd is 17.5 µM.

What about the “infected mice that had died by 96 h post-infection” value ([13]; 2 × 10^7 CFUs i.p. per mouse, phloretin 150 mg/kg s.c. 2 h after infection and at 8-h intervals) of the same compound?
The value was 25%.

And the “gross pathological changes in liver and spleen of infected mice” value ([13]; 48 h post-infection)?
The value was “clearly ameliorated”.

What about the “histopathology (inflammatory lesions) in infected mice” value ([13]; 48 h post-infection, liver and spleen sections) of the same compound?
The value was “only minor inflammatory lesions”.

And the “numbers of viable bacteria colonized in the livers and spleens” value ([13]; 48 h post-infection, vs infected mice treated with DMSO)?
Its value is “significantly lower”.

What about the “survival rate vs control group treated with DMSO” value ([13]; phloretin 150 mg/kg s.c., 96 h) of the same compound?
The value was “significantly higher survival rate”.

And the “LLO levels in bacterial culture supernatants and cell pellets” value [14]?
Its value is “reduced in a concentration-dependent manner”.

And the MIC ([15]; Listeria monocytogenes)?
Its MIC is 933 µM (≈ 256 µg/mL).

And the “growth of L. monocytogenes” value ([15]; at the concentrations required for inhibition of LLO expression and SrtA catalytic activity, OD 600 nm)?
The value was “not apparently affected”.

For `O=c1c(O)c(-c2ccc(O)c(O)c2)oc2cc(O)ccc12` [fisetin], which “protection against L. monocytogenes infection in vitro and in vivo” value ([1]; inhibitor of LLO, ref Wang et al., 2015a) is on record?
The value was “robust protection”.
